Where two headings read alike, the source gives them in different places.
Columns and labels:
[1] = system: bloodstream forms of Trypanosoma brucei brucei; test: resazurin-based antitrypanosomal inhibition assay; assay type: cell-based; conditions: for pIC50 T. b. b.: Table 3
Procedure: Parasites were axenically cultivated in sterile vented flasks containing complete Hirumi’s modified Iscove’s medium 9 (HMI-9) [500 mL IMDM (Iscove’s modified Dulbecco’s medium) (Gibco, Waltham, MA, USA) supplemented with 10% (v/v) heat-inactivated fetal bovine serum (HIFBS) (Sigma Aldrich), 10% (v/v) serum plus (Sigma Aldrich), HMI-9 supplement (1 mM hypoxanthine, 0.16 mM thymidine, 50 µM bathocuproine disulfonic acid, 1.5 mM cysteine, 1.25 Mm pyruvic acid, 0.2 mM 2-mercaptoethanol (Sigma Aldrich)), and 1% (v/v) penicillin–streptomycin (Sigma Aldrich) and incubated at 37 °C in a 5% CO2 atmosphere.
The in vitro inhibitory potency of the 400 MMVPB compounds against bloodstream forms of Trypanosoma brucei brucei was evaluated using the resazurin-based inhibition assay as previously described. Briefly, parasites at their mid-logarithmic growth phase were counted, and the cell density was adjusted with fresh complete HMI-9 medium to 2 × 10^5 trypanosomes per mL. Then, 90 µL of parasite suspension was then distributed into the wells of 96-well flat-bottomed plates containing 10 µL of compounds for a final test concentration of 10 µM. […] Each assay plate was set up in duplicate and repeated two times. The percent parasite inhibition was determined for each compound based on fluorescence readouts relative to the mean fluorescence of negative control wells.
y = 100/[1+ 10^(logIC50/99-x)H], where H is the hill coefficient or slope factor [60].

in vitro = conditions: African green monkey
Procedure: (§1) The resulting pellet was resuspended and counted in a Neubauer chamber in the presence of trypan blue to exclude nonviable cells colored in blue. Once the cell load was estimated, they were either used for the next passage in a new flask or processed for the cytotoxicity assay.
(§2) Briefly, Vero cells at a density of 10^4 cells per well were plated in 100 µL of complete DMEM and incubated overnight to allow cell attachment. Plates were then controlled under an inverted fluorescence microscope (Lumascope LS520) to ensure adherence, sterility and cell integrity. Thereafter, culture medium from each well was carefully emptied, and plates were filled with 90 µL of fresh complete medium followed by the addition of 10 µL of serial 5-fold dilutions of compound solutions. […] Fluorescence was then read using a Magelan Infinite M200 fluorescence multiwell plate reader (Tecan) with excitation and emission wavelengths of 530 and 590 nm, respectively. The percentage of cell viability was calculated from readouts, and the median cytotoxic concentration (CC50) for each compound was deduced from concentration–response curves using GraphPad Prism 8.0 software as described above. Selectivity indexes were then determined for each test substance as follows: SI = CC50(Vero cells)/IC50(T. brucei brucei).

Vero cells = test: cytotoxicity against Vero cells (resazurin viability assay); conditions: read-out: CC50 Vero; Table 3
Procedure: as §1, §2

[2] = Trypanosoma brucei, Table 4, analogs of MMV675968, solid material, read-out: IC50 ± SD T. b. b.
[3] = Trypanosoma brucei, Table 4, negative log of IC50 in molar, read-out: pIC50 T. b. b. (converted)
[4] = Table 3, MMVPB compounds with known potency against other diseases, read-out: IC50 ± SD T. b. b.

| Compound | IC50 [1, 4] | pIC50 T. b. b. ([1]; negative log of IC50 in molar) | CC50 (Vero cells) | other results |
| --- | --- | --- | --- | --- |
| COc1ccc(NCc2ccc3nc(N)nc(N)c3c2Cl)cc1OC [Analog 2] |  |  |  | IC50 [1, 2]: 2.4 ± 0.07 µM; IC50 [1, 3]: 2.4 µM; CC50 at 48 h (in vitro): 18.2 ± 3.08 µM |
| COc1ccccc1NCc1ccc2nc(N)nc(N)c2c1Cl [Analog 3] |  |  |  | IC50 [1, 2]: 3.2 ± 0.03 µM; IC50 [1, 3]: 3.24 µM; CC50 at 48 h (in vitro): 20.4 ± 0.7 µM |
| COc1ccc(NCc2ccc3nc(N)nc(N)c3c2Cl)cc1 [Analog 4] |  |  |  | IC50 [1, 2]: 2.5 ± 0.15 µM; IC50 [1, 3]: 2.51 µM; CC50 at 48 h (in vitro): 16.9 ± 0.2 µM |
| Cc1ccccc1NCc1ccc2nc(N)nc(N)c2c1Cl [Analog 5] |  |  |  | IC50 [1, 2]: 2.3 ± 0.2 µM; IC50 [1, 3]: 2.29 µM; CC50 at 48 h (in vitro): > 100 µM |
| COc1ccc(NCc2ccc3nc(N)nc(N)c3c2)cc1OC [Analog 6] |  |  |  | IC50 [1, 2]: 0.56 ± 0.07 µM; IC50 [1, 3]: 0.562 µM; CC50 at 48 h (in vitro): > 100 µM |
| COc1ccc(NCc2ccc3nc(N)nc(N)c3c2)cc1 [Analog 8] |  |  |  | IC50 [1, 2]: 0.25 ± 0.01 µM; IC50 [1, 3]: 0.251 µM; CC50 at 48 h (in vitro): 30.9 ± 2.3 µM |
| Cc1ccccc1NCc1ccc2nc(N)nc(N)c2c1 [Analog 9] |  |  |  | IC50 [1, 2]: 0.19 ± 0.003 µM; IC50 [1, 3]: 0.191 µM; CC50 at 48 h (in vitro): 22 ± 1.3 µM |
| COc1ccc(NC(=O)c2ccc3nc(N)nc(N)c3c2)cc1 [Analog 11] |  |  |  | IC50 [1, 2]: 4 ± 1.3 µM; IC50 [1, 3]: 3.98 µM; CC50 at 48 h (in vitro): 22.9 ± 0.5 µM |
| COc1ccc(NC(=O)c2ccc3nc(N)nc(N)c3c2)cc1OC [Analog 12] |  |  |  | IC50 [1, 2]: > 10 µM; CC50 at 48 h (in vitro): > 100 µM |
| COc1ccccc1NC(=O)c1ccc2nc(N)nc(N)c2c1 [Analog 13] |  |  |  | IC50 [1, 2]: 3.2 ± 0.3 µM; IC50 [1, 3]: 3.24 µM; CC50 at 48 h (in vitro): > 100 µM |
| COc1cccc(CNC(=O)c2ccc3nc(N)nc(N)c3c2)c1 [Analog 14] |  |  |  | IC50 [1, 2]: 2.5 ± 0.13 µM; IC50 [1, 3]: 2.51 µM; CC50 at 48 h (in vitro): > 100 µM |
| Cc1ccccc1NC(=O)c1ccc2nc(N)nc(N)c2c1 [Analog 15] |  |  |  | IC50 [1, 2]: > 10 µM; CC50 at 48 h (in vitro): > 100 µM |
| COc1ccccc1NCc1cnc(N)nc1N [Analog 16] |  |  |  | IC50 [1, 2]: > 10 µM; CC50 at 48 h (in vitro): > 100 µM |
| COc1cc(NC(C)CCCN)c2ncccc2c1 (stereo not drawn) [MMV000023, Primaquine, reference compound] |  |  |  | IC50 ([1]; Trypanosoma brucei, Table 1, reference drugs included in MMVPB, read-out: IC50 ± SD T. b. b.): 8.4 ± 0.01 µM; IC50 ([1]; Trypanosoma brucei, Table 1, negative log of IC50 in molar, read-out: pIC50 T. b. b. (converted)): 8.51 µM |
| CNCCC(Oc1ccc(C(F)(F)F)cc1)c1ccccc1 (stereo not drawn) [MMV001561, fluoxetine, reference compound] |  |  |  | CC50 at 48 h (in vitro): 41.5 ± 1 µM |
| CN(C)c1cc(NC(=O)Nc2ccccc2)c2ccccc2n1 [MMV006901] | 8.45 ± 0.05 µM | 5.07 | 14.6 ± 0.02 µM |  |
| COc1cc(-c2cc(-c3ccc(S(C)(=O)=O)cc3)cnc2N)ccc1O [MMV010576] | 1.5 ± 0.3 µM | 5.82 | > 100 µM |  |
| COc1ccc(CCN2CCC(NCc3cccc(N(C)C)c3)CC2)cc1 [MMV011511] | 8.94 ± 0.7 µM | 5.05 | > 100 µM |  |
| Cc1cc(Nc2ccncc2)n2nc(C)c(-c3ccccc3Cl)c2n1 [MMV016136] | 8.61 ± 0.3 µM | 5.06 |  |  |
| COc1ccc(-c2cncc3ccc(C(=O)NCCCn4ccnc4)nc23)cc1 [MMV020670] | 1.9 ± 0.02 µM | 5.72 |  |  |
| CN1CCC(NCc2cccc(-c3ccc(S(=O)(=O)NCc4ccccc4)cc3)c2)CC1 [MMV022029] | 1.7 ± 0.7 µM | 5.76 | 13.1 ± 0.2 µM |  |
| O=C(Nc1ccc(N2CCNCC2)cc1)c1ccn2ncc(-c3cccc(Cl)c3)c2n1 [MMV022478] | 1.7 ± 0.01 µM | 5.76 | 11.42 ± 0.07 µM |  |
| Nc1nccc2ccc(-c3ccc4nccn4c3)cc12 [MMV023233] | 8.43 ± 0.06 µM | 5.07 | 29.8 ± 0.7 µM |  |
| c1cncc(NCc2ccc(-c3cc4ccncc4cc3OC3CCNCC3)s2)c1 [MMV023969] | 8.09 ± 0.3 µM | 5.09 | 26.3 ± 0.4 µM |  |
| O=C(Nc1ccccc1)c1ccc(-c2cc3ccncc3cc2OC2CCNCC2)s1 [MMV024035] | 1.8 ± 0.1 µM | 5.74 | 35.75 ± 0.08 µM |  |
| Cc1ccc2[nH]c(C3CCCNC3)c(-c3ccncc3)c2c1 (stereo not drawn) [MMV024311] | 9.78 ± 0.2 µM | 5.00 |  |  |
| O=C(Nc1ccc(N2CCNCC2)nc1)c1oc(-c2ccccc2)nc1C(F)(F)F [MMV024937] | 1.4 ± 0.5 µM | 5.85 | 14.6 ± 0.6 µM |  |

| Compound | IC50 [1, 4] | pIC50 T. b. b. ([1]; negative log of IC50 in molar) | CC50 (Vero cells) | other results |
| --- | --- | --- | --- | --- |
| OCCc1ccc(Nc2nccc(-c3nnc4ccccn34)n2)cc1 [MMV028694] | 1.8 ± 0.1 µM | 5.74 | 10.36 ± 0.1 µM |  |
| CC(=O)N1CCc2cc3nc(C)cc(C)c3cc21 [MMV054312] | 1.29 ± 0.42 µM | 5.88 | > 100 µM |  |
| Cc1cc(C)nc(-n2nc(C)cc2Nc2ccccc2)n1 [MMV062221] | 1.7 ± 0.6 µM | 5.76 |  |  |
| O=C(C(Cc1c[nH]c2ccccc12)NS(=O)(=O)c1ccc(Cl)cc1)N1CCCCC1 (stereo not drawn) [MMV085210] | 0.9 ± 0.1 µM |  | > 100 µM |  |
| CCOC(=O)c1c(NC(=O)c2c(F)c(F)c(F)c(F)c2F)sc(C(N)=O)c1C [MMV153413] | 1.7 ± 0.1 µM | 5.76 | > 100 µM |  |
| CC(C)(C)c1cnc(NC(=O)c2ccccc2O)s1 [MMV495543] | 0.7 ± 0.25 µM |  |  |  |
| Brc1cncc(-c2cc(NCCCn3ccnc3)nc(-c3ccccc3)n2)c1 [MMV661713] | 1.9 ± 0.02 µM | 5.72 | > 100 µM |  |
| O=C(NCCN1CCCC1)c1cc(NCCCCN2CCC(F)(F)CC2)nc2ccc(Cl)cc12 [MMV667494] | 1.3 ± 0.5 µM | 5.88 | > 100 µM |  |
| COc1ccc(N(CCc2cccc(C)n2)C(=O)C2CCCCC2)cc1 [MMV675996] | 0.8 ± 0.02 µM |  |  |  |
| CC(Oc1ccccc1)C(=O)Nc1nc(-c2ccccn2)cs1 (stereo not drawn) [MMV676411] | 9.44 ± 0.09 µM | 5.02 |  |  |
| O=C(Nc1nc(-c2ccccn2)cs1)c1cncn1-c1ccccc1 [MMV676512] | 1.9 ± 0.07 µM | 5.72 |  |  |
| NC(=O)c1cc(-c2ccsc2)ccc1OCCOc1ccccc1 [MMV687138] | 0.5 ± 0.01 µM |  | > 100 µM |  |
| Nc1nc2cc(-c3cncc(Oc4ccc(F)cc4)c3)ccc2[nH]1 [MMV687248] | 0.5 ± 0.07 µM |  | > 100 µM |  |
| Cn1c(=O)c2c(S(C)(=O)=O)snc2n(C)c1=O [MMV687251] | 1.9 ± 0.01 µM | 5.72 | 6.4 ± 2 µM |  |
| COc1cccc(-c2nc3c(N4CCCC4)cccc3n2CC2CCCN2)n1 (stereo not drawn) [MMV687703] | 1.7 ± 0.06 µM | 5.76 | > 100 µM |  |
| Cc1cnc(N2CCN[C@@H](Cc3ccccc3)C2)nc1Oc1ccc(-n2ccnc2)cc1 [MMV687765] | 2.3 ± 0.3 µM | 5.64 | > 100 µM |  |
| O=C(Nc1ccc(C(F)(F)F)c(C(F)(F)F)c1)c1cc(Cl)ccc1O [MMV687807] | 0.5 ± 0.04 µM |  | 11 ± 1.3 µM |  |
| CN1CCN(CCCOc2ncc(Nc3ncc(-c4ccc(C(F)(F)F)c(F)c4)nc3C(N)=O)cn2)CC1 [MMV687812] | 1.7 ± 0.1 µM | 5.76 | 2.66 ± 0.3 µM |  |
| CCc1ccc(S(=O)(=O)Nc2cc(CN3CCN(CCC(C)C)CC3)ccc2C)cc1 [MMV688124] | 2.9 ± 0.08 µM | 5.53 | > 100 µM |  |
| CC(C)n1nc(-c2cc3c(Cl)cccc3[nH]2)c2c(N)ncnc21 [MMV688417] | 4.38 ± 0.9 µM | 5.36 | 13.6 ± 2.9 µM |  |
| CN1CCC(c2cc(-c3ccncc3)c(-c3ccc(F)cc3)[nH]2)CC1 [MMV688703] | 3.18 ± 1.3 µM | 5.49 |  |  |
| CS(=O)(=O)c1ccc(C(=O)N(CC2CCCO2)c2nc3ccccc3s2)cc1[N+](=O)[O-] (stereo not drawn) [MMV688761] | 8.33 ± 0.09 µM | 5.08 | > 100 µM |  |
| CNc1nnc(Sc2cnn(-c3ccccc3)c(=O)c2Cl)s1 [MMV688763] | 0.8 ± 0.1 µM |  | 8.14 ± 0.01 µM |  |
| Cc1[nH]c2ccccc2c1C(c1cccs1)N1CCN(C)CC1 (stereo not drawn) [MMV688768] | 8.36 ± 0.08 µM | 5.07 | > 100 µM |  |
| CCOc1ccc2cc(-c3nn(CC4CCN(C)CC4)c4ncnc(N)c34)ccc2c1 [MMV688854] | 8.5 ± 0.06 µM | 5.07 | 13.4 ± 1.5 µM |  |
| COc1cc([C@@H]2c3cc4c(cc3[C@H](O)[C@H]3COC(=O)[C@H]23)OCO4)cc(OC)c1OC [Podophyllotoxin, reference compound] |  |  |  | CC50 at 48 h (in vitro): 0.43 ± 0.14 µM |

From PMC9571290, “Preliminary Structure–Activity Relationship Study of the MMV Pathogen Box Compound MMV675968 (2,4-Diaminoquinazoline) Unveils Novel Inhibitors of Trypanosoma brucei brucei” (Molecules, 2022)
